The results in this text go back to ChEMBL document CHEMBL1127385, “Synthesis and diuretic activity of alkyl- and arylguanidine analogs of N,N'-dicyclohexyl-4-morpholinecarboxamidine in rats and dogs” (J Med Chem, 1994).

Data set [1] deals with Canis familiaris. As to the kind of experiment: Total electrolytic excretion of sodium in urine of dogs after intravenous administration of 34.1 uM/Kg of drug. The format is ADME, organism-based, Canis lupus familiaris. The settings on record: dog, in vivo.
The test system of data set [2] is Canis familiaris. As to the kind of experiment: Total electrolytic excretion of chlorine in urine of dogs after peroral administration of 102 uM/Kg of drug. The note with it: dog, in vivo, po. Type of data set: ADME, organism-based, Canis lupus familiaris.
In data set [3] the test system is Canis familiaris. As to the kind of experiment: Total electrolytic excretion of chlorine in urine of dogs after intravenous administration of 3.03 uM/Kg of drug. The format is ADME, organism-based, Canis lupus familiaris. The note with it: dog, in vivo.
Another data set has as its system Rattus norvegicus. As to the kind of experiment: Total electrolytic excretion of chlorine in urine of rats after peroral administration of 102 uM/Kg of drug. The format is ADME, organism-based. The settings on record: in vivo, po.
For data set [4], the species on record is Canis familiaris. As to the kind of experiment: Systemic cardio vascular Hemodynamics of heart rate was measured in Beagle dogs after giving the dose of MNX. The format is functional, Canis lupus familiaris.
Data set [5] has as its system Canis familiaris. As to the kind of experiment: Total electrolytic excretion of potassium in urine of dogs after intravenous administration of 34.1 uM/Kg of drug. Type of data set: ADME, organism-based, Canis lupus familiaris. The settings on record: dog, in vivo.
Data set [6] concerns Canis familiaris. As to the kind of experiment: Total electrolytic excretion of sodium in urine of dogs after intravenous administration of 3.03 uM/Kg of drug. Type of data set: ADME, organism-based, Canis lupus familiaris. The settings on record: dog, in vivo.
The species named for data set [7] is Canis familiaris. As to the kind of experiment: Systemic cardio vascular Hemodynamics of cardiac index was measured in Beagle dogs after giving the dose of MNX. Type of data set: functional, Canis lupus familiaris, Heart.
The subject of data set [8] is Canis familiaris. As to the kind of experiment: Tested for the diuretic activity by measuring the urinary volume after peroral administering 68.1 uM/Kg of drug in dogs. The format is ADME, organism-based, Canis lupus familiaris, Urine. The settings on record: dog, in vivo, po.
The species entered for data set [9] is Canis familiaris. As to the kind of experiment: Tissue vascular resistance of left ventricle was measured in Beagle dogs after giving the dose of MNX. The format is functional, Canis lupus familiaris, Heart left ventricle.
For data set [10], the species on record is Canis familiaris. As to the kind of experiment: Systemic cardio vascular Hemodynamics of total peripheral resistance was measured in Beagle dogs after giving the dose of MNX. Type of data set: functional, Canis lupus familiaris, Heart.
The species entered for data set [11] is Canis familiaris. As to the kind of experiment: Systemic cardio vascular Hemodynamics of heart rate was measured in Beagle dogs in pretreatment control group. Type of data set: functional, Canis lupus familiaris.
Data set [12] deals with Canis familiaris. As to the kind of experiment: Total electrolytic excretion of chlorine in urine of dogs after intravenous administration of 34.1 uM/Kg of drug. Type of data set: ADME, organism-based, Canis lupus familiaris. The settings on record: dog, in vivo.
In data set [13] the test system is Canis familiaris. As to the kind of experiment: Total electrolytic excretion of sodium in urine of dogs after peroral administration of 34.1 uM/Kg of drug. Type of data set: ADME, organism-based, Canis lupus familiaris. The note with it: dog, in vivo, po.
Data set [14] has as its system Canis familiaris. As to the kind of experiment: Total electrolytic excretion of potassium in urine of dogs after intravenous administration of 3.03 uM/Kg of drug. The format is ADME, organism-based, Canis lupus familiaris. The note with it: dog, in vivo.
Data set [15] is filed under the species Canis familiaris. As to the kind of experiment: Tissue vascular resistance of right atrium was measured in Beagle dogs before treatment. The format is functional, Canis lupus familiaris, Cardiac atrium.
For data set [16], the system named is Canis familiaris. As to the kind of experiment: Total electrolytic excretion of sodium in urine of dogs after peroral administration of 50.8 uM/Kg of drug. Type of data set: ADME, organism-based, Canis lupus familiaris. The settings on record: dog, in vivo, po.
For data set [17], the species on record is Canis familiaris. As to the kind of experiment: Tissue vascular resistance of right atrium was measured in Beagle dogs after giving the dose of MNX. Type of data set: functional, Canis lupus familiaris, Cardiac atrium.
Data set [18] is filed under the species Canis familiaris. As to the kind of experiment: Systemic cardio vascular Hemodynamics of stroke index was measured in Beagle dogs after giving the dose of MNX plus the drug. Type of data set: functional, Canis lupus familiaris, Heart.
The species named for data set [19] is Canis familiaris. As to the kind of experiment: Systemic cardio vascular Hemodynamics of heart rate was measured in Beagle dogs after giving the dose of MNX plus the drug. Type of data set: functional, Canis lupus familiaris.
The species entered for data set [20] is Canis familiaris. As to the kind of experiment: Systemic cardio vascular Hemodynamics of mean arterial pressure was measured in Beagle dogs after giving the dose of MNX. Type of data set: functional, Canis lupus familiaris, Heart.

Turning to `C1CCC(N=C(NC2CCCCC2)N2CCOCC2)CC1`, the “Excretion Na+” value with Canis familiaris [1] stood at 18.6 m equiv; with Canis familiaris [6] it was 8.1 m equiv; with Canis familiaris [13], 9.9 m equiv; in the data set on Canis familiaris [16], 11.9 m equiv. Moreover, the “Excretion Cl-” value in the data set on Canis familiaris [2] was 19.6 m equiv; with Canis familiaris [3], 5.4 m equiv; with Rattus norvegicus, 1.65 m equiv; with Canis familiaris [12] it was 16.4 m equiv. In addition, the HR in the data set listed under Canis familiaris [4] is listed as 138 beats min-1; in the data set filed under Canis familiaris [11], 87 beats min-1; in the data set listed under Canis familiaris [19], 132 beats min-1. Further, the “Excretion K+” value in the data set on Canis familiaris [5] amounted to 1.3 m equiv; in the data set with Canis familiaris [14], 1.2 m equiv. Moreover, the CI in the data set filed under Canis familiaris [7] stood at 260 mL/min/kg. In the data set with Canis familiaris [8], the V is 91 mL. The TVR in the data set listed under Canis familiaris [9] was found to be 10 mmHg·min·g/mL; in the data set listed under Canis familiaris [15], 635 mmHg·min·g/mL; in the data set listed under Canis familiaris [17], 37 mmHg·min·g/mL. In addition, the TPR in the data set listed under Canis familiaris [10] was determined as 0.3 mmHg·min·kg/mL. The SI in the data set listed under Canis familiaris [18] turned out to be 1.1 ml beat-1 kg-1. The MAP in the data set filed under Canis familiaris [20] turned out to be 75 mmHg.
